Laboratory results from US9133240B2, “Compounds binding to the bacterial beta ring” (Centre National de la Recherche Scientifique, priority 2011, dated 2015).
“And” between values parts separate entries of the source, which are not always exact repeats. Identical values can stand only once. Square brackets hold non-standard residues; d marks the D form. Ends that are not written are not given here. Peptide text beside a SMILES is read from it. Phe(3,4-Cl2) = N[C@@H](Cc1ccc(Cl)c(Cl)c1)C(=O)O; Phe(4-Br) = N[C@@H](Cc1ccc(Br)cc1)C(=O)O; Cha = N[C@@H](CC1CCCCC1)C(=O)O

Experiments:
E. coli β clamp = target: T1, E. coli β clamp (Escherichia coli, UniProt P0A988); assay: SPR competition assay: inhibition of P1-β interaction by challenging peptides; type: binding; conditions: for Ki (10^6 M^−1): Ki = (1 + KA[β])/IC50; for ΔG: ΔG = −RT ln Ki;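 as to all read-outs here: SPR responses corrected for background, then fitted with a 1:1 Langmuir binding model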
T1 construct: made in house; host or cells: E. coli BL21 (β); P1 by solid-phase synthesis
Protocol: SPR experiments were performed on a Biacore® 3000. […] After subtraction of the background response, the data were fit to the 1:1 Langmuir model using BIAevaluation (Biacore™). […] IC50 values for each challenging peptide were determined by plotting the concentration of peptide against the percentage of binding inhibition. The IC50 value of each peptide was used to calculate Ki (Ki=(1+KA[β])/IC50) which measures the affinity of the challenging peptide for β in the competition assay, and AG was derived from Ki (ΔG=RT ln Ki).

β ring [1] = target: T2, β ring (Escherichia coli, UniProt P0A988); assay: Isothermal titration calorimetry (ITC) of peptides into β ring solution; type: binding, E. coli; conditions: for N: number of binding sites per β monomer / Kd / ΔS (cal/mol/deg): ITC; for ΔΔG (Kcal/mol) = ΔGj − ΔGi, reference i = P7: compared to P7; for ΔΔG (Kcal/mol) = ΔGj − ΔGi, reference i = P11: compared to P11
T2 construct: made in house; host or cells: E. coli BL21
Protocol: ITC was performed by using a ITC200 microcalorimeter from MicroCal. Peptides (400 μM) were titrated in sequential injections (2 μl each) into a β ring solution (300 μl, 20 or 30 μM) at 25° C. Data were corrected from control experiments where peptides were injected in buffer solution (Hepes 10 mM pH 7.4, NaCl 0.15M, EDTA 3 mM, P20 0.005%). Data analysis was performed with Origin 7.0 software.
Target sequence in this assay (P0A988 whole entry): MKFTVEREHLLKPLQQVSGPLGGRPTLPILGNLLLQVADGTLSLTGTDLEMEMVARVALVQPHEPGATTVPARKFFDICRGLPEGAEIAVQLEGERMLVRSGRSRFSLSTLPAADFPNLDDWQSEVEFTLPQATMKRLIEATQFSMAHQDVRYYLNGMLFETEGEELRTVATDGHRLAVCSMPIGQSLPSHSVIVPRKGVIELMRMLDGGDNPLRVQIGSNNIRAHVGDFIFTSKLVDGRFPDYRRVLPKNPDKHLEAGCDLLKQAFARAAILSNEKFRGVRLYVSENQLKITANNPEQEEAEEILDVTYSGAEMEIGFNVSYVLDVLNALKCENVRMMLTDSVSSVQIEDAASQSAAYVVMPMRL

β ring [2] = target: T2, β ring; assay: IC50 SPR (μM)
Description: Table printed on a drawing sheet, Figure 4
Head of the field: IC50 SPR (μM)
The patent's description of the figure: FIG. 4: Polymerase competition assay. […] Grey: biochemical assay, black: SPR assay. P15 sequence is Ac-RQLVLF, (SEQ ID No: 15), Scr: scrambled peptide: Ac-ChaFQLD, (SEQ ID No: 33).
First copying reader's note: The biochemical assay row is printed with decimal commas and the SPR row with decimal points.
Where the first naming reader finds the target: passage: the relative affinity of two compounds for the β ring is not dependent from the technique used for measuring said affinities (FIG. 4B)
Target sequence in this assay (P0A988 whole entry, looked up): as the sequence (P0A988 whole entry) above

[3] = IC50 (μM), SPR, inhibition of binding of β ring (0.25 μM) to immobilized P1
[4] = peptide 400 μM, β 20 or 30 μM, 25° C
[5] = Kd (nM), peptide 400 μM, β 20 or 30 μM, 25° C

T1 sequence (P0A988 whole entry): as above

CC(=O)N[C@@H](CCC(N)=O)C(=O)N[C@@H](CC1CCCCC1)C(=O)N[C@@H](CC(=O)O)C(=O)N[C@@H](CC(C)C)C(=O)N[C@@H](Cc1ccc(Br)cc1)C(=O)O [Peptide P13, Ac-Gln-Cha-Asp-Leu-pBrPhe-OH] (Ac-Q[Cha]DL[Phe(4-Br)]-OH) was tested, and the IC50 (E. coli β clamp; [3]) was 0.096 µM, the “Ki (10^6 M^−1)” value (E. coli β clamp; SPR) was 13.49 10^6 M^−1 and the “ΔG” value (E. coli β clamp; SPR) was -9.71 kcal/mol. For the same molecule, the “N: number of binding sites per β monomer” value (β ring [1]; [4]) was 0.85 and 0.83, the “ΔΔG (Kcal/mol) = ΔGj − ΔGi, reference i = P7” value (β ring [1]; from ITC data) was -0.28 kcal/mol and the “ΔΔG (Kcal/mol) = ΔGj − ΔGi, reference i = P11” value (β ring [1]; from ITC data) was -0.53 kcal/mol.
CC(=O)N[C@@H](CCC(N)=O)C(=O)N[C@@H](CC1CCCCC1)C(=O)N[C@@H](CC(=O)O)C(=O)N[C@@H](CC(C)C)C(=O)N[C@@H](Cc1ccc(Cl)c(Cl)c1)C(=O)O [Peptide P14, Ac-Gln-Cha-Asp-Leu-(3,4-di-Cl)Phe-OH] (Ac-Q[Cha]DL[Phe(3,4-Cl2)]-OH) was tested, and the “fold increase compared to the full PolIV enzyme” value (E. coli β clamp) was 4 fold, the IC50 (E. coli β clamp; [3]) was 0.077 µM and the IC50 (E. coli β clamp; IC50 SPR (nM), SPR) was 0.07 µM. For the same molecule, the “fold increase in interaction/affinity compared to P6” value (E. coli β clamp; SPR) was 15 fold, the “fold increase compared to P1” value (E. coli β clamp; SPR IC50) was 115 fold and the “Ki (10^6 M^−1)” value (E. coli β clamp; SPR) was 17 10^6 M^−1. For the same molecule, the “ΔG” value (E. coli β clamp; SPR) was -9.85 kcal/mol, the “N: number of binding sites per β monomer” value (β ring [1]; [4]) was 0.91 and 0.90 and the Kd (β ring [1]; [5]) was roughly 60 nM. The “ΔΔG (Kcal/mol) = ΔGj − ΔGi, reference i = P7” value (β ring [1]; from ITC data) was -0.8 kcal/mol, the “ΔΔG (Kcal/mol) = ΔGj − ΔGi, reference i = P11” value (β ring [1]; from ITC data) was -1.05 kcal/mol and the “ΔΔG (Kcal/mol) = ΔGj − ΔGi, reference i = P12” value (β ring [1]; from ITC data, compared to P12) was -0.2 kcal/mol. The “ΔΔG (Kcal/mol) = ΔGj − ΔGi, reference i = P13” value (β ring [1]; from ITC data, compared to P13) was -0.52 kcal/mol.
Ac-RQLVLF [Peptide P15, Ac-RQLVLF] showed an IC50 (β ring [2]) of 1910 nM.
In the case of “H-RQLVLF-OH [Peptide P3, H-Arg-Gln-Leu-Val-Leu-Phe-OH]”, the IC50 (E. coli β clamp; [3]) is reported as 8.62 µM, the “Ki (10^6 M^−1)” value (E. coli β clamp; SPR) is reported as 0.15 10^6 M^−1 and the “ΔG” value (E. coli β clamp; SPR) is reported as -7.04 kcal/mol. The “ΔS (cal/mol/deg)” value (β ring [1]; 25° C) was 6.05 cal/mol/deg and 6.6 cal/mol/deg, the “N: number of binding sites per β monomer” value (β ring [1]; [4]) was 1.54 and 1.45 and the Kd (β ring [1]; [5]) was 2820 nM and 2320 nM.
For “H-RQLVLGL-OH [Peptide P1, H-Arg-Gln-Leu-Val-Leu-Gly-Leu-OH, reference compound]”, the IC50 (E. coli β clamp; [3]) was 8.85 µM, the “fold less efficient binding to the ring compared to the whole polymerase PolIV” value (E. coli β clamp; SPR) was 30 fold and the “Ki (10^6 M^−1)” value (E. coli β clamp; SPR) was 0.15 10^6 M^−1. The “ΔG” value (E. coli β clamp; SPR) was -7.06 kcal/mol, the “ΔS (cal/mol/deg)” value (β ring [1]; 25° C) was 12.8 cal/mol/deg and 7.6 cal/mol/deg and the “N: number of binding sites per β monomer” value (β ring [1]; [4]) was 1.33 and 1.31. The Kd (β ring [1]; affinity (ITC)) was 1000 to 2000 nM.
